This note sets out measurements from patent US8518968B2, “Hydrazone and diacyl hydrazine compounds and methods of use” (The United States of America, as represented by the …, priority 2009, dated 2013).

A word on the IC50: it is the midpoint of a concentration-inhibition curve.

Where a name gives a salt, the structure may show the parent alone.

For one data set, the system named is JEKO-1 cells stably transfected with shRNAs to luciferase or NOXA. Briefly: Effect of NOXA shRNA on cytotoxicity in JEKO-1 cells (MTT). The format is cell-based. The conditions noted are these: JEKO-1 shLuc vs shNoxa, 24 hours. Here is the method: The effect of NOXA on cytotoxicity of CBU-028, EERI, or bortezomib is determined. FIG. 4 presents graphs comparing CBU-028, EERI, and bortezomib with respect to percent cell viability as a function of concentration, measured using JEKO-1 cells stably transfected with shRNAs to luciferase (shLuc, control, ▪) or NOXA (shNoxa, ◯, sequence: [NT]) after treatment with the compound for 24 hrs, with viability determined with MTT as described above and normalized to the untreated control.
Take `CC(C)C[C@H](NC(=O)[C@H](Cc1ccccc1)NC(=O)c1cnccn1)B(O)O` [bortezomib]: the “requirement of NOXA for cytotoxicity” value is on record as “Noxa is equally required”.

For another data set, the system named is JEKO-1 cells. Put plainly: cells. The note with it: Homo sapiens, JeKo-1, 48 h.
Turning to `CC1(C)C(N(O)C(=O)Nc2ccc(C(F)(F)F)cc2)N(c2ccc(C(F)(F)F)cc2)C(=O)N1CC(=O)NN` (centres unmarked) [CBU-007, 1-(1-(2-hydrazinyl-2-oxoethyl)-5,5-dimethyl-2-oxo-3-(4-(tri-fluoromethyl)phenyl)imi-dazolidin-4-yl)-1-hydroxy-3-(4-(trifluoromethyl)phenyl)urea], inhibition was half-maximal at 30 µM (IC50).

Molecule `O=C(N/N=C/C=C/c1ccc([N+](=O)[O-])o1)c1ccc(C(=O)N/N=C/C=C/c2ccc([N+](=O)[O-])o2)c(O)c1O` [CBU-049, (N′1E,N′4E)-2,3-dihydroxy-N′1,N′4-bis((E)-3-(5-nitrofuran-2-yl)allylidene)terephthalo hydrazide] yielded an IC50 of 1.5 µM.

The data set is the same for the next values; noted with them: Homo sapiens, JeKo-1, 48 h, JEKO-1 cells, incubated 2 days, MTT, four parameter logistic fit.
For `CC1(C)C(N(O)C(=S)Nc2ccc(Cl)cc2)N(c2ccc(Cl)cc2)C(=S)N1CC(=O)N/N=C/C=C/c1ccc([N+](=O)[O-])o1` (centres unmarked) [CBU-073], the IC50 came out at 3 µM.

For the molecule `O=C(N/N=C/C=C/c1ccc([N+](=O)[O-])o1)c1ccccc1` [CBU-015, (E)-N′-((E)-3-(5-nitrofuran-2-yl)allylidene)benzohydrazide], the IC50 turned out to be 8 µM. This IC50 lies about 2.7-fold higher than the previous one.

On to `O=C(N/N=C/C=C/c1ccc([N+](=O)[O-])o1)c1cc(Br)ccc1O` [CBU-041, (E)-5-bromo-2-hydroxy-N′-((E)-3-(5-nitrofuran-2-yl)allylidene)benzohydrazide], for which inhibition was half-maximal at 10 µM (IC50).

As to `CC(C)(C)OC(=O)N/N=C/C=C/c1ccc([N+](=O)[O-])o1` [CBU-018, (E)-tert-butyl 2-((E)-3-(5-nitrofuran-2-yl)allylidene)hydrazine-carboxylate], inhibition was half-maximal at 18 µM (IC50). Against the preceding molecule, the IC50 is about 1.8-fold higher.

`COc1ccc(C(=O)N/N=C/C=C/c2ccc([N+](=O)[O-])o2)c(O)c1` [CBU-043, (E)-2-hydroxy-4-methoxy-N′-((E)-3-(5-nitrofuran-2-yl)allylidene)benzohydrazide] displayed an IC50 of 30 µM. Against the preceding molecule, the IC50 is about 1.7-fold higher.

Consider `CC1(C)C(N(O)C(=O)Nc2ccc(Cl)cc2)N(c2ccc(Cl)cc2)C(=O)N1CC(=O)N/N=C/c1ccc([N+](=O)[O-])o1` (centres unmarked) [CBU-024], for which the IC50 is 7 µM.

For `O=C(N/N=C/C=C/c1ccc([N+](=O)[O-])cc1)c1cc2ccccc2cc1O` [CBU-061, (E)-3-hydroxy-N′-((E)-3-(4-nitrophenyl)allylidene)-2-naphthohydrazide], inhibition was half-maximal at 5 µM (IC50).

Turning to `O=C(N/N=C/C=C/c1ccc([N+](=O)[O-])o1)c1cccc(O)c1` [CBU-021, (E)-3-hydroxy-N′-((E)-3-(5-nitrofuran-2-yl)allylidene)benzohydrazide], half-maximal inhibition (IC50) was put at 8 µM.

`O=C(/C=C/c1ccc([N+](=O)[O-])o1)NNC(=O)c1cc2ccccc2cc1O` [CBU-062, (E)-3-hydroxy-N′-(3-(5-nitrofuran-2-yl)acryloyl)-2-naphthohydrazide] displayed an IC50 of 2.5 µM.

As to `O=C(N/N=C/C=C/c1ccc([N+](=O)[O-])o1)c1ccncc1` [CBU-033, (E)-N′-((E)-3-(5-nitrofuran-2-yl)allylidene)isonicotino-hydrazide], the IC50 is 6 µM.

Regarding `O=C(N/N=C/C=C/c1ccc([N+](=O)[O-])o1)c1cnc2c(C(F)(F)F)cccc2c1O` [CBU-040, (E)-4-hydroxy-N′((E)-3-(5-nitrofuran-2-yl)allylidene)-8-(trifluoromethyl)quinoline-3-carbohydrazide], the IC50 is 10 µM.

On to `CCNC(=S)N/N=C/C=C/c1ccc([N+](=O)[O-])o1` [CBU-017, (E)-N-ethyl-2-((E)-3-(5-nitrofuran-2-yl)allylidene)hydrazine-carbothioamide], for which the IC50 is 15 µM.

`COc1ccc(O)c(C(=O)N/N=C/C=C/c2ccc([N+](=O)[O-])o2)c1` [CBU-046, (E)-2-hydroxy-5-methoxy-N′-((E)-3-(5-nitrofuran-2-yl)allylidene)benzohydrazide] came in with an IC50 of 10 µM.

As to `CC1(C)C(N(O)C(=O)Nc2ccc(C(F)(F)F)cc2)N(c2ccc(Cl)cc2)C(=O)N1CC(=O)N/N=C/C=C/c1ccc([N+](=O)[O-])o1` (centres unmarked) [CBU-014], the IC50 was 3 µM.

The molecule `Cc1ccc(O)c(C(=O)N/N=C/C=C/c2ccc([N+](=O)[O-])o2)c1` [CBU-045, (E)-2-hydroxy-5-methyl-N′-((E)-3-(5-nitrofuran-2-yl)allylidene)benzohydrazide] gave an IC50 of 6 µM.

Molecule `O=C(N/N=C/C=C/c1ccccc1)c1cc2ccccc2cc1O` [CBU-051, (E)-3-hydroxy-N′-((E)-3-phenylallylidene)-2-naphthohydrazide] registered an IC50 of 10 µM.

`Cc1cccc(C(=O)N/N=C/C=C/c2ccc([N+](=O)[O-])o2)c1O` [CBU-038, (E)-2-hydroxy-3-methyl-N′-((E)-3-(5-nitrofuran-2-yl)allylidene)benzohydrazide] showed an IC50 of 9 µM.

Consider `C[N+](C)(C)CC(=O)N/N=C/C=C/c1ccc([N+](=O)[O-])o1` [CBU-019], for which the IC50 is 3.5 µM.

For `O=C(N/N=C/C=C/c1ccc([N+](=O)[O-])o1)c1ccc(O)cc1` [CBU-027, (E)-4-hydroxy-N′-((E)-3-(5-nitrofuran-2-yl)allylidene)benzohydrazide], half-maximal inhibition (IC50) required 7.5 µM. This IC50 is about 2.1-fold higher than that of the molecule before.

As to `O=C(N/N=C/C=C/c1ccc([N+](=O)[O-])o1)c1ccccc1O` [CBU-025, (E)-2-hydroxy-N′-((E)-3-(5-nitrofuran-2-yl)allylidene)benzohydrazide], the midpoint of inhibition, the IC50, lay at 6.5 µM.

Regarding `CC1(C)C(N(O)C(=O)Nc2ccc(C(F)(F)F)cc2)N(c2ccc(C(F)(F)F)cc2)C(=O)N1CC(=O)N/N=C/C=C/c1ccc([N+](=O)[O-])o1` (centres unmarked) [CBU-008], half-maximal inhibition (IC50) required 2.5 µM.

Take `O=C(N/N=C/C=C/c1ccc([N+](=O)[O-])o1)c1nc(O)c2ccccc2c1O` [CBU-036, (E)-1,4-dihydroxy-N′-((E)-3-(5-nitrofuran-2-yl)allylidene)isoquinoline-3-carbohydrazide]: half-maximal inhibition (IC50) required 9 µM.

`CC1(C)C(N(O)C(=O)Nc2ccc(Cl)cc2)N(c2ccc(C(F)(F)F)cc2)C(=O)N1CC(=O)N/N=C/C=C/c1ccc([N+](=O)[O-])o1` (centres unmarked) [CBU-013] returned an IC50 of 3 µM. Against the preceding molecule, the IC50 is about 3-fold lower.

On to `O=C(N/N=C/C=C/c1ccc([N+](=O)[O-])o1)c1cccs1` [CBU-034, (E)-N′-((E)-3-(5-nitrofuran-2-yl)allylidene)thiophene-2-carbohydrazide], for which the midpoint of inhibition, the IC50, lay at 20 µM.

`CC1(C)C(N(O)C(=O)Nc2ccc(Cl)cc2)N(c2ccc(Cl)cc2)C(=O)N1CC(=O)N/N=C/C=C/c1ccco1` (centres unmarked) [CBU-023]: the IC50 amounted to 15 µM.

Consider `O=C(CNC(=O)Nc1ccc(Cl)cc1)N/N=C/C=C/c1ccc([N+](=O)[O-])o1` [CBU-022, 1-(4-chlorophenyl)-3-(2-((E)-2-((E)-3-(5-nitrofuran-2-yl)allylidene)hydrazinyl)-2-oxoethyl)urea], for which the IC50 came to 6 µM.

As for `O=C(N/N=C/C=C/c1ccccc1[N+](=O)[O-])c1cc2ccccc2cc1O` [CBU-055, (E)-3-hydroxy-N′-((E)-3-(2-nitrophenyl)allylidene)-2-naphthohydrazide], the IC50 came out at 6 µM.

On to `O=C(N/N=C/C=C/c1ccc([N+](=O)[O-])o1)c1cnc2cc(C(F)(F)F)ccc2c1O` [CBU-039, (E)-4-hydroxy-N′-((E)-3-(5-nitrofuran-2-yl)allylidene)-7-(trifluoromethyl)quinoline-3-carbohydrazide], for which inhibition was half-maximal at 15 µM (IC50).

On to `CN(C)c1ccc(/C=C/C=N/NC(=O)c2cc3ccccc3cc2O)cc1` [CBU-054, (E)-N′-((E)-3-(4-(dimethylamino)phenyl)allylidene)-3-hydroxy-2-naphthohydrazide], for which the IC50 stood at 15 µM.

In turn, `O=C(N/N=C/C=C/c1ccc([N+](=O)[O-])o1)c1ccc(O)cc1O` [CBU-042, (E)-2,4-dihydroxy-N′-((E)-3-(5-nitrofuran-2-yl)allylidene)benzohydrazide] yielded a concentration for half-maximal inhibition (IC50) of 40 µM.

Consider `O=C(N/N=C/C=C/c1ccc([N+](=O)[O-])o1)c1cccnc1` [CBU-016, (E)-N′-((E)-3-(5-nitrofuran-2-yl)allylidene)nicotinonhydrazide], for which half-maximal inhibition (IC50) was put at 7 µM. This IC50 is about 5.7-fold lower than that of the molecule before.

Take `N=C(N)N/N=C/C=C/c1ccc([N+](=O)[O-])o1` [CBU-020, (E)-2-((E)-3-(5-nitrofuran-2-yl)allylidene)hydrazine-carboximidamide hydrochloride]: the IC50 was 4 µM.
